# Measured values: patent US20230151106A1, “OFATUMUMAB FOR TREATING MS WHILE MAINTAINING SERUM IgG” (NOVARTIS AG, priority 2020, published 2023)
# How the values were obtained:
# CD19+ B-cells = assay: CD19+ B-cell depletion in ASCLEPIOS; type: in vivo, human
# Procedure: ASCLEPIOS I and II are double-blind, double-dummy, active comparator-controlled, parallel-group, innovative, adaptive design, multicentre trials. Patients were randomised (1:1) to receive either ofatumumab 20 mg sc injections every 4 weeks (after an initial loading regimen of 20 mg sc doses on Days 1, 7 and 14) or teriflunomide 14 mg orally once daily, for up to 30 months. […] Patients aged 18-55 years with an Expanded Disability Status Scale (EDSS) score (according to Kurtzke, Neurology. 1983, Nov; 33(11): 1444-52) of 0-5.5 at screening who experienced ≥1 relapse in the past year or ≥2 relapses in the past 2 years or a positive gadolinium-enhancing (Gd+) MRI scan during the year before randomisation were included.
# serum IgG = assay: Serum IgG levels in ASCLEPIOS I/II (Pool C2)
# Procedure: In the present application serum Ig levels can preferably be determined by immunoturbidimetry. Preferably a Roche cobas® Analyzer was used, especially module c of the cobas® analyser. In a preferred embodiment Ig levels can be determined by using a cobas® c 311 analyzer. It is further preferred that IgG measurements are carried out as described in the cobas® leaflet “IGG-2 Tina-quant IgG Gen. 2”, preferably version 11.0 dated 2016-02 and IgM measurements as described in the leaflet “IGM-2 Tina-quant IgM Gen. 2”, preferably version 13.0 dated 2018-11.
# (§1) Serum samples were preferably kept at 2-8° C. before measurement.
# Patients were randomised (1:1) to receive either ofatumumab 20 mg sc injections every 4 weeks (after an initial loading regimen of 20 mg sc doses on Days 1, 7 and 14) or teriflunomide 14 mg orally once daily, for up to 30 months.
# (§2) Serum IgG/IgM levels were monitored at baseline, Week (W) 4, W12 and every 12 weeks, see FIG. 1.
# [1] = test system: multiple sclerosis patients; assay: Infections in relation to IgM/IgG levels <LLN vs >=LLN in ofatumumab MS studies
# Excerpt: as §2
# serum IgM = assay: Serum IgM levels in ASCLEPIOS I/II (Pool C2); type: in vivo, human; conditions: any time post-baseline, FIG. 9
# Procedure: In the present application serum Ig levels can preferably be determined by immunoturbidimetry. Preferably a Roche cobas® Analyzer was used, especially module c of the cobas® analyser.
# as §1
# ASCLEPIOS I and II are double-blind, double-dummy, active comparator-controlled, parallel-group, innovative, adaptive design, multicentre trials. Patients were randomised (1:1) to receive either ofatumumab 20 mg sc injections every 4 weeks (after an initial loading regimen of 20 mg sc doses on Days 1, 7 and 14) or teriflunomide 14 mg orally once daily, for up to 30 months.
# [2] = test system: multiple sclerosis patients; conditions: in vivo; cited from earlier work
# MS patients = conditions: cited from earlier work
# IgG levels = assay: Metanalysis of Example 1 versus Derfuss et al. (pooled OPERA), IgG levels; type: in vivo, human; conditions: in vivo
# Excerpt: In a metanalysis, the results of Example 1 and the results obtained by Derfuss et al. were compared.
# [3] = anytime during post baseline visit
# [4] = Ofatumumab N=134, Teriflunomide N=214
# [5] = after the last infusion, 51 patients from MS clinical studies
compound,measurement,setting,value
C/C(O)=C(\C#N)C(=O)Nc1ccc(C(F)(F)F)cc1 [teriflunomide],patients with CD19+ B-cells below LLN,CD19+ B-cells; Week 1,(2.0) %
same,"patients with CD19+ B-cells below LLN, n/M",CD19+ B-cells; Week 1,9/443
same,patients with CD19+ B-cells below LLN,CD19+ B-cells; Week 2,(1.6) %
same,"patients with CD19+ B-cells below LLN, n/M",CD19+ B-cells; Week 2,7/437
same,patients with CD19+ B-cells below LLN,CD19+ B-cells; Week 4,(3.2) %
same,"patients with CD19+ B-cells below LLN, n/M",CD19+ B-cells; Week 4,14/444
same,patients with CD19+ B-cells below LLN,CD19+ B-cells; Week 12,(3.0) %
same,"patients with CD19+ B-cells below LLN, n/M",CD19+ B-cells; Week 12,13/439
same,patients with CD19+ B-cells below LLN,CD19+ B-cells; Week 24,(2.1) %
same,"patients with CD19+ B-cells below LLN, n/M",CD19+ B-cells; Week 24,9/419
same,patients with CD19+ B-cells below LLN,CD19+ B-cells; Week 36,(1.2) %
same,"patients with CD19+ B-cells below LLN, n/M",CD19+ B-cells; Week 36,5/408
same,patients with CD19+ B-cells below LLN,CD19+ B-cells; Week 48,(1.3) %
same,"patients with CD19+ B-cells below LLN, n/M",CD19+ B-cells; Week 48,5/394
same,patients with CD19+ B-cells below LLN,CD19+ B-cells; Week 60,(2.1) %
same,"patients with CD19+ B-cells below LLN, n/M",CD19+ B-cells; Week 60,8/382
same,patients with CD19+ B-cells below LLN,CD19+ B-cells; Week 72,(1.0) %
same,"patients with CD19+ B-cells below LLN, n/M",CD19+ B-cells; Week 72,3/304
same,patients with CD19+ B-cells below LLN,CD19+ B-cells; Week 84,(2.1) %
same,"patients with CD19+ B-cells below LLN, n/M",CD19+ B-cells; Week 84,4/195
same,patients with CD19+ B-cells below LLN,CD19+ B-cells; Week 96,(0.8) %
same,"patients with CD19+ B-cells below LLN, n/M",CD19+ B-cells; Week 96,1/121
same,patients with CD19+ B-cells below LLN,CD19+ B-cells; Week 108,(4.5) %
same,"patients with CD19+ B-cells below LLN, n/M",CD19+ B-cells; Week 108,3/67
same,"patients with CD19+ B-cells below LLN, n/M",CD19+ B-cells; Week 120,0/16
same,patients with B-cells below LLN,CD19+ B-cells; throughout the study Treatment epoch,up to 4.5%
same,change in mean serum IgG value from baseline,serum IgG; Week 96,-0.421 g/L
same,decrease in mean IgG value from baseline,serum IgG; Week 96,4.1%
same,patients with IgG levels on or above the LLN,"serum IgG; any time post-baseline, FIG. 9",> 77%
same,"patients with IgG below LLN, n/N",serum IgG; [3],214/934
same,proportion of patients with IgG below LLN,serum IgG; [3],22.9%
same,Infections observed after the first drop of IgG<LLN,[1]; [4],36.4%
same,"Infections observed after the first drop of IgG<LLN, number of patients",[1]; [4],78
same,patients who reported an infection post study drug discontinuation,[1]; among patients who discontinued treatment for Ig decline,2 of 7
same,patients with IgM levels on or above the LLN,serum IgM,> 90%
"ocrelizumab: anti-CD20 monoclonal antibody with a humanized antibody backbone, approved for relapsing and primary progressive MS",approximate mean rate of reduction in serum Ig levels,[2],3-4 % per year
same,"infection rate, association with IgG, first value",[2],6.50 /100PY
same,"infection rate, association with IgG, second (vs) value",[2],2.11 /100PY
same,"infection rate, association with IgM, first value",[2],3.66 /100PY
same,"infection rate, association with IgM, second (vs) value",[2],1.88 /100PY
same,median time for B-cell counts to return to either baseline or LLN,MS patients; [5],72 weeks
same,range of time for B-cell counts to return to either baseline or LLN,MS patients; [5],27-175 weeks
same,effect on total immunoglobulins,MS patients; in vivo,decrease in total immunoglobulins
same,malignancies compared to control groups,MS patients; in vivo,increased number of malignancies
same,patients whose B-cell counts rose to either baseline or LLN,MS patients; within 2.5 years after the last infusion,90%
same,effect on IgG levels on the long term,IgG levels,leads to a reduction of IgG levels
